US20220088155A1, “SUBCONJUNCTIVAL CHEMOTHERAPEUTIC DELIVERY BY FIBRIN SEALANT IN THE TREATMENT OF RETINOBLASTOMA” (BAXTER INTERNATIONALINC., priority 2019, published 2022)
Read-outs that look alike come from different tables or passages of the source.

Experiments:
[1] = system: WERI retinoblastoma cells; test: Cell viability assay (resazurin/Alamar Blue), WERI; type: cell-based, human; conditions: single drug, read-out: Standalone IC50
Description: (§1) The human retinoblastoma Y79 (ATCC® HTB18™) and WERI (ATCC® HTB169™) cell lines were cultured in RPMI 1640 (ATCC®) medium supplemented with 20% (Y79) or 10% (WERI-RB) fetal bovine serum, 100 U/mL penicillin, and […] streptomycin in a humidified atmosphere of 5% CO2 at 37° C., grown in 75 cm^2 tissue culture flasks. Once confluent, cells were sub cultivated with fresh medium 1:2 to 1:4 ratios after discarding the supernatant and obtaining the gravity-settled aggregates.
(§2) 10 mL of cell suspension were centrifuged at 1000 G for 10 minutes. The supernatant was discarded and the pellet was then resuspended in media to 1.1*10^5 live cells/mL following a viability cell count check. Cells were plated in 96-well plates at 10,000 cells per well. Sample wells were treated with carboplatin, etoposide or vincristine at the concentrations of 1000 uM, 100 uM, 50 uM, 10 uM, 5 uM, 1 uM, 0.5 uM, and 0.1 uM. Untreated and non-cell controls include a 10 uL vehicle, bringing up all wells to 100 uL total volume. Experiments covered 24/48/72 hour incubations at 5% CO2 at 37° C. prior to analyses. Plates ready for analysis were incubated with 10 uL of 10× Alamar Blue Reagent for 1-4 hours (apparent color change) and emission intensity read at 585 nm following a 555 nm excitation.
(§3) Y79 and WERI cells were incubated with Vincristine, Etoposide, or Carboplatin using previously established half-maximal inhibitory concentrations in a fixed-ratio treatment paradigm. Y79 and WERI cells also were incubated with a mixture of Vincristine, Etoposide, or Carboplatin.

Y79 retinoblastoma cells = test: Cell viability assay (resazurin/Alamar Blue), Y79; type: cell-based, human; conditions: single drug, read-out: Standalone IC50
Description: as §1, §2, §3

TISSEEL fibrin sealant = target: T1, TISSEEL fibrin sealant (Homo sapiens, UniProt P02671+P02675+P02679); test: Scanning electron microscopy branching analysis of drug-embedded fibrin sealant; conditions: fibrin sealant admixed with 1 mM drug, SEM 5,000x, ImageJ skeleton analysis
T1 construct: purchased
T1 sequence (P02671 20-644 isoform P02671-2 limits assumed): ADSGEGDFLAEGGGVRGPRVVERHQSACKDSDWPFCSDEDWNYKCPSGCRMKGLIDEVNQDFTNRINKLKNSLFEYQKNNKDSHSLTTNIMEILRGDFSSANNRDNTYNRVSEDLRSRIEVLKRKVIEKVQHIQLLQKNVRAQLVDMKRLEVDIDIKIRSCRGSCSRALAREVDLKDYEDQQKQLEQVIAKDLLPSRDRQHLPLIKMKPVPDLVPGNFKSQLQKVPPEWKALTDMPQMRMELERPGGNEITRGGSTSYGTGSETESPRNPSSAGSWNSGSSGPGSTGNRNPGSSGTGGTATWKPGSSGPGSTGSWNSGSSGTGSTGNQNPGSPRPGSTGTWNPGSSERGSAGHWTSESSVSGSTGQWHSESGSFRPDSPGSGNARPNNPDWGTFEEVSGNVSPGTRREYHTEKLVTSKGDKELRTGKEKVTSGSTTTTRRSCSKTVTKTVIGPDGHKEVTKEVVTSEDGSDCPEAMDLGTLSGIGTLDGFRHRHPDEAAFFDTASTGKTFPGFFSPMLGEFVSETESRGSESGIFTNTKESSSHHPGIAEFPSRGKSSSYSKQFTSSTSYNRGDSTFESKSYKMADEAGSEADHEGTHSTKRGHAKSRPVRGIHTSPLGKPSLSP
T1 sequence (P02675 45-491 limits assumed): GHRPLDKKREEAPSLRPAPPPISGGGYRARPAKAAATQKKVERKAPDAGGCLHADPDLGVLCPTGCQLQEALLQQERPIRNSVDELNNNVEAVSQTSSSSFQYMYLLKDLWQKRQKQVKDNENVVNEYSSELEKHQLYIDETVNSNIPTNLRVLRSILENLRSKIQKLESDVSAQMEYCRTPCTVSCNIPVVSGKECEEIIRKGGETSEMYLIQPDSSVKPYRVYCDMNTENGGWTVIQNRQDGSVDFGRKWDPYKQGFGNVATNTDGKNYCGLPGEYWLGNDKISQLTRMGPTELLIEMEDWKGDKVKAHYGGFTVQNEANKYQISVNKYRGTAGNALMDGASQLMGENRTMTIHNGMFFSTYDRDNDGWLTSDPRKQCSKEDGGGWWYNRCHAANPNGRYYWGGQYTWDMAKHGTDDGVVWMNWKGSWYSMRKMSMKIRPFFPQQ
T1 sequence (P02679 27-437 isoform P02679-2 limits assumed): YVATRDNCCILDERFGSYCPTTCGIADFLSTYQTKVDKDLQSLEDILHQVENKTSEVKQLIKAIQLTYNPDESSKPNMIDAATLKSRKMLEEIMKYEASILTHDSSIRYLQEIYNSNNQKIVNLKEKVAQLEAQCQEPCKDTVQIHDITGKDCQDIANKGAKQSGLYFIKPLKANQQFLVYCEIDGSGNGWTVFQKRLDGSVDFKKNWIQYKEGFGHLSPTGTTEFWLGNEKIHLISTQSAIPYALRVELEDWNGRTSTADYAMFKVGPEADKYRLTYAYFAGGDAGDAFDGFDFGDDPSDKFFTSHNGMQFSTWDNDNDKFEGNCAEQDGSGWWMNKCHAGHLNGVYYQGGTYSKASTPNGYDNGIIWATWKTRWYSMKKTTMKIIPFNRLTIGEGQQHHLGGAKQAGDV
Description: FIGS. 8A to 8D depict fiber analysis of VEC-embedded fibrin sealant. Commercially available fibrin sealant was admixed with 1 mM additions of Vincristine, Etoposide, or Carboplatin. Samples were critically point dried and imaged by scanning electron microscopy at 5,000× magnification at various points around the samples. Images were uploaded into ImageJ for fiber analysis. […] In FIG. 8B, the images were binarized to 8-bit grayscale. In FIG. 8C, the binarized image was skeletonized to produce a representation of the fiber network. The Analyze Skeleton function was used to quantify fiber branches and junctions. […] Images analysed were taken at 5,000× magnificent and compared over a 800×800 pixel area. TISSEEL™ or TISSEEL™ admixed with chemotherapeutic drug (1 mM final concentration) was prepared according to the IFU. In short, 2 mM additions of chemotherapy were transferred via syringe and needle to the thrombin vial (500 IU/mL thrombin) during preparation and placed in a Fibrinotherm to spin and heat the mixtures to 37 degrees celsius. Following complete dissolution of both thrombin and fibrinogen solutions, each solution was pulled up into respective syringes and loaded in the Duploject spray system accompanying the kit. The 1 mL volumes of thrombin and fibrinogen (2 mL total) were sprayed onto collagen casing. Immediately following coagulation (˜30 seconds), the samples were washed 3× in cacodylate buffer for 10 minutes and fixed in 2% glutaraldehyde buffer (Electron Microscopy Sciences). Fixed clots were washed, serially dehydrated with ethanol, and dried with hexamethyldisilizane (Electron Microscopy Sciences). Clots were allowed to air dry overnight thereafter. Clots were then teased apart with forceps and mounted on aluminum sample supports with carbon adhesive tape. Samples were sputter coated with 20 nm iridium metal in a Leica ACE600 and analyzed by scanning electron microscopy (FEI Quanta 650 FEG). Branching analysis was performed using 2D images cross-sectional cuts of fibrin clots. Representative images and sections displaying easily discernible fibrin branching characteristics were selected from each group. Images were processed using ImageJ's skeleton analysis function. In short, images were first binarized to delineate the image further into branch and background sections. Binary images were then placed through the Analyze Skeleton (2D/3D) function with no pruning or selected parameters. The output file included details such as branch lengths, branch numbers, and number of junctions.

Row | SMILES | IC50 [1] [nM] | IC50 (Y79 retinoblastoma cells) [nM] | Avg Branch length (TISSEEL fibrin sealant) [nm] | Branch/Junction Ratio (TISSEEL fibrin sealant) | Junctions (TISSEEL fibrin sealant) | Max Branch Number (TISSEEL fibrin sealant) | IC50 ([1]; Homo sapiens) [nM] | IC50 (Y79 retinoblastoma cells; Homo sapiens) [nM]
1 | N.N.O=C([O-])C1(C(=O)[O-])CCC1.[Pt+2] [Carboplatin] | 1000 | 1100 | 19 | 68.0 | 148 +/− 2.6 | 10065 +/− 142 | – | –
2 | CC[C@]1(O)C[C@H]2CN(CCc3c([nH]c4ccccc34)[C@@](C(=O)OC)(c3cc4c(cc3OC)N(C=O)[C@H]3[C@@](O)(C(=O)OC)[C@H](OC(C)=O)[C@]5(CC)C=CCN6CC[C@]43[C@@H]65)C2)C1 [Vincristine] | – | – | 22 | 55.7 | 136 +/− 2.3 | 7580 +/− 125 | 2900 | 100
3 | COc1cc([C@@H]2c3cc4c(cc3[C@@H](O[C@@H]3O[C@@H]5CO[C@@H](C)O[C@H]5[C@H](O)[C@H]3O)[C@H]3COC(=O)[C@H]23)OCO4)cc(OC)c1O [Etoposide] | – | – | 21 | 66.2 | 125 +/− 2.1 | 8272 +/− 140 | 2700 | 6000
